According to patent US20260325538A1, “THERAPY” (priority 2023, published 2026):

Test system: Acinetobacter baumannii ST15 (NDM-1 OXA-51, ADC-263)
Test: Checkerboard MIC, fixed concentration of sBLI (Examples 11-17)
Type: cell-based
Excerpt: The antibiotics and serine β-lactamase-inhibitors (sBLIs) were purchased from the following suppliers: Ceftazidime (CAZ): Sigma-Aldrich; Cefepime (FEP): Sigma-Aldrich; Cefpodoxime (CEFP): MedChemExpress; Sulbactam (SUL): Sigma-Aldrich Avibactam (AVI): Biosynth; Vaborbactam (VAB): ABCR; Tazobactam (TAZ): Sigma-Aldrich; Taniborbactam (TAN): Sigma-Aldrich.
In each of Examples 3-23, the compound of Example 26 of WO 2018/033719 was employed as the zinc chelator. The following abbreviations are used in these examples: sBLI means serine-β-lactamase inhibitor; CFU means colony-forming unit, which is a group of microbes that grows from a single cell on a petri plate; DMSO means dimethyl sulfoxide; MHB means Mueller-Hinton broth; caMHB means cation-adjusted Mueller-Hinton broth; MIC means minimum inhibitory concentration—the lower the MIC, the more efficient the combination against the respective bacterial strain.
General Protocol 2 Used in Examples 11-23 Employing a Fixed Concentration of sBLI within Each Experiment:
Antimicrobial susceptibility testing (AST) by broth microdilution (MIC determination) was performed according to The European Committee on Antimicrobial Susceptibility Testing (EUCAST) guidelines (see Reading guide for broth microdilution Version 5.0, 2024: https://www.eucast.org).
Sterile clear round bottom polystyrene (non-treated) 96-well microplates (Corning 3788) were used for making serial two-fold dilutions of the antibiotic in cation-adjusted Mueller Hinton II broth (caMHB; Thermo Scientific, T3462, containing 29.4 μM Zn^2+ or MILLIPORE, 90922-500G, containing 5.6 μM Zn^2+), across the columns of the microtiter plate (128-0.06 μg/mL; columns 1-12).
The checkerboard plates were all modified by adding a serine β-lactamase inhibitor (sBLI) at a fixed concentration of 16 μg/mL. Additionally, the zinc chelator was added at various fixed concentrations. Samples were mixed so that all plates contained a control containing antibiotic alone (no sBLI, no zinc chelator), a sample containing antibiotic and sBLI (double combination; no zinc chelator), and a sample containing antibiotic, sBLI and zinc chelator (triple combination). All test wells used in each plate contained growth medium (caMHB), and inoculated bacteria at a final inoculum between 3-7×10^5 CFU/mL. […] Synergy for the triple combination (antibiotic, sBLI, and zinc chelator) was defined as when the MIC in any of the rows containing the zinc chelator in combination with antibiotic and sBLI (triple combination), was lower than for antibiotic alone and lower than for the antibiotic and sBLI double combination.
An X in rows 1-4 in the table indicates growth of the bacterial inoculum, while a blank cell indicates no growth. Concentrations (μg/mL) of FEP are given in row 0. AVI and the zinc chelator were added in fixed concentrations (AVI at 16 μg/mL in rows 2-4, zinc chelator at 16 μg/mL in row 3 and at 8 μg/mL in row 4). As a control, the effect of FEP alone was tested (row 1). All wells contained bacterial growth medium (caMHB, 29.4 μM Zn^2+) and were inoculated with the test bacterium. The grey cells indicate the FEP MIC.
An X in rows 1-4 in the table indicates growth of the bacterial inoculum, while a blank cell indicates no growth. Concentrations (μg/mL) of FEP are given in row 0. SUL and the zinc chelator were added in fixed concentrations (SUL at 16 μg/mL in rows 2-4, zinc chelator at 16 μg/mL in row 3 and at 8 μg/mL in row 4). As a control, the effect of FEP alone was tested (row 1). All wells contained bacterial growth medium (caMHB, 29.4 μM Zn^2+) and were inoculated with the test bacterium. The grey cells indicate the FEP MIC.
An X in rows 1-4 in the table indicates growth of the bacterial inoculum, while a blank cell indicates no growth. Concentrations (μg/mL) of FEP are given in row 0. TAZ and the zinc chelator were added in fixed concentrations (TAZ at 16 μg/mL in rows 2-4, zinc chelator at 16 μg/mL in row 3 and at 8 μg/mL in row 4). […]

Measured: synergy with the zinc chelator

CN(C[C@H](O)[C@@H](O)[C@H](O)[C@H](O)CO)C(=O)c1ccc(CN(Cc2ccccn2)Cc2ccccn2)nc1 [zinc chelator]
Synergy: zinc chelator 4 μg/mL, with CEFP and SUL 16 μg/mL, caMHB 5.6 μM Zn2+ | zinc chelator 4 μg/mL, with FEP and AVI 16 μg/mL, caMHB 5.6 μM Zn2+ | zinc chelator 8 μg/mL, with CEFP and SUL 16 μg/mL, caMHB 5.6 μM Zn2+ | zinc chelator 8 μg/mL, with FEP and AVI 16 μg/mL, caMHB 5.6 μM Zn2+ | zinc chelator 8 μg/mL, with FEP and AVI 16 μg/mL, caMHB 29.4 μM Zn2+ | zinc chelator 8 μg/mL, with FEP and SUL 16 μg/mL, caMHB 29.4 μM Zn2+ | zinc chelator 8 μg/mL, with FEP and TAZ 16 μg/mL, caMHB 5.6 μM Zn2+ | zinc chelator 8 μg/mL, with FEP and TAZ 16 μg/mL, caMHB 29.4 μM Zn2+ | zinc chelator 16 μg/mL, with CEFP and SUL 16 μg/mL, caMHB 5.6 μM Zn2+ | zinc chelator 16 μg/mL, with CEFP and SUL 16 μg/mL, caMHB 29.4 μM Zn2+ | zinc chelator 16 μg/mL, with FEP and AVI 16 μg/mL, caMHB 29.4 μM Zn2+ | zinc chelator 16 μg/mL, with FEP and SUL 16 μg/mL, caMHB 29.4 μM Zn2+ | zinc chelator 16 μg/mL, with FEP and TAZ 16 μg/mL, caMHB 5.6 μM Zn2+ | zinc chelator 16 μg/mL, with FEP and TAZ 16 μg/mL, caMHB 29.4 μM Zn2+
